One data set has as its system MT-4 cells. Put plainly: cytotoxicity in mock-infected MT-4 cells (MTT method). It counts as cell-based. The protocol:
(§1) A test compound having various concentrations were placed in a 96-well microtiter plate along with HIV-infected MT-4 cells (2.5×10^4 /well, MOI (multiplicity of infection): 0.01) immediately after infection thereof. In order to ascertain the cytotoxicty of the test compound with respect to MT-4 cells, mock-infected (non-infected) cells were cultured in an identical manner along with the test compound of various concentrations. After incubating for 5 days at 37° C. in a CO2 atmosphere, the number of living cells were determined by using MTT method.
Selectivity Index (S.I.) is expressed by the ratio of CC50 to EC50 (CC50 /EC50).
In general terms: Tetrazolium dyes change colour on reduction, which living cells bring about.

The next data set relates to HIV. Kind of data set: anti-HIV activity, inhibition of HIV-induced cytopathicity in MT-4 cells (MTT method). It counts as cell-based. As to conditions: for EC50: HIV-infected MT-4 cells, MOI 0.01, 5 days, 37° C.; for S.I. (CC50/EC50): MT-4 cells, ratio of CC50 to EC50, 7200 min. As for the experimental part:
as §1, with “method. The anti-HIV activity was evaluated with the method written by R. Pauwels, et al. (R. Pauwels, et al., J. Virol Methods, 20, 309 to 321 (1988)).” for “method.”
The anti-HIV activity is shown in terms of EC50 (50% effective concentration) that is the concentration of a compound which inhibits 50% of HIV-induced cytopathicity in MT-4 cells, and the cytotoxity is shown in terms of CC50 (cytotoxic concentration) that is the concentration of a compound which reduces 50% of viability of mock-infected MT-4 cells. Selectivity Index (S.I.) is expressed by the ratio of CC50 to EC50 (CC50 /EC50).
A general note: Protection from cytopathic effect is a common read-out in antiviral testing.

In another data set the test system is rabbit blood. Put plainly: effects on blood clotting, whole blood clotting time. The conditions noted are these: rabbit whole blood, 120 U/ml, positive control.
The mark [1] stands for this setting: mock-infected MT-4 cells, 5 days, 37° C.
Setting [2] is: mock-infected MT-4 cells, 5 days, 37° C., 7200 min.

Consider 32 substances from patent US5459257A, “Sulfated oligoglycoside acylate and antiviral agent containing the same as active ingredient” (priority 1993, dated 1995).

Protocol for rabbit blood: Sodium heparin (Kodama) used as positive control was diluted with saline at the concentration of 120 U/ml.
Japan White rabbits (supplier: Kitayama Labes), 4 months old, were used for this study.
Cardiopuncture was performed in a rabbit, and at when blood was started to be flowed into the syringe, the timer was made to start. The whole blood collected was carefully flowed into double glass tubes incubated. After putting the samples calmly for 3 minutes, the first tube was tilted gently every 30 seconds and the current of blood was observed. When blood in the first tube was clotted, the same operation was performed in the second tube. When the blood was clotted in the second tube, the timer was stopped, and this end point was recorded as whole blood clotting time.

Turning to “Sulfated dl-α-tocopheryl O-n-docosanoyl-β-D-laminaripentaoside [Compound 40]”, in the data set on MT-4 cells (setting [1]), the half-maximal cytotoxic concentration (CC50) came to 546 µg/mL. Besides, in the data set on HIV, the EC50 came out at 20.6 µg/mL and the “S.I. (CC50/EC50)” value came out at 27.

Consider “Sulfated dl-α-tocopheryl O-n-octanoyl-β-D-laminaripentaoside [Compound 35]”, for which, in the data set on MT-4 cells (setting [2]), the CC50 was found to be 519 µg/mL. In addition, in the data set with HIV, the EC50 stood at 20.2 µg/mL and the “S.I. (CC50/EC50)” value is given as 26.

“Sulfated dl-α-tocopheryl O-benzoyl-β-D-laminaripentaoside [Compound 46]”: in the data set on MT-4 cells (setting [2]), the CC50 was 160 µg/mL. In the data set with HIV, the EC50 was 3.9 µg/mL and the “S.I. (CC50/EC50)” value is recorded as 41.

“Sulfated 4-n-heptylphenyl O-benzoyl-β-D-galactosyl-(1→4)-β-D-galactosyl-(1→4)-β-D-glucoside [Compound 18]” showed a CC50 in the data set with MT-4 cells (setting [1]) of 634 µg/mL. Moreover, in the data set on HIV, the EC50 came to 14.5 µg/mL and the “S.I. (CC50/EC50)” value stood at 47.

Substance “Sulfated 4-n-octylphenyl O-benzoyl-β-D-laminaripentaoside [Compound 8]” had a CC50 in the data set with MT-4 cells (setting [1]) of 556 µg/mL. In the data set with HIV, the EC50 was determined as 6.8 µg/mL and the “S.I. (CC50/EC50)” value is 82.

Consider “Sulfated 4-t-octylphenyl O-benzoyl-β-D-galactosyl-(1→4)-β-D-galactosyl-(1→4)-β-D-glucoside [Compound 17]”, for which the CC50 in the data set on MT-4 cells (setting [1]) was found to be 484 µg/mL. In the data set with HIV, the EC50 is 76.3 µg/mL and the “S.I. (CC50/EC50)” value is listed as 6.

Turning to “Sulfated dl-α-tocopheryl O-n-dodecanoyl-β-D-laminaripentaoside [Compound 36]”, the CC50 in the data set on MT-4 cells (setting [2]) came to 323 µg/mL. Moreover, in the data set on HIV, the concentration giving a half-maximal response (EC50) worked out at 3.9 µg/mL and the “S.I. (CC50/EC50)” value was found to be 83.

The substance “Sulfated dl-α-tocopheryl O-benzoyl-β-D-laminaripentaoside [Compound 45]” showed a CC50 in the data set with MT-4 cells (setting [2]) of 642 µg/mL. In the data set with HIV, the EC50 is 1.8 µg/mL and the “S.I. (CC50/EC50)” value was 357.

As to “Sulfated 4-n-octyloxyphenyl O-octanoyl-β-D-laminaripentaoside [Compound 26]”, in the data set with MT-4 cells (setting [1]), the 50% cytotoxic concentration (CC50) was > 1,000 μg/ml. In the data set with HIV, the EC50 turned out to be 1.7 µg/mL and the “S.I. (CC50/EC50)” value was above 588.

Regarding “Sulfated dl-α-tocopheryl O-n-butyryl-β-D-laminaripentaoside [Compound 31]”, the half-maximal cytotoxic concentration (CC50) in the data set with MT-4 cells (setting [2]) was 214 µg/mL. For the same substance, in the data set on HIV, the half-maximal effective concentration (EC50) worked out at 1.1 µg/mL and the “S.I. (CC50/EC50)” value is on record as 195.

Turning to “Sulfated dl-α-tocopheryl O-n-butyryl-β-D-galactosyl-(1→4)-β-D-galactosyl-(1→4)-β-D-glucoside [Compound 42]”, the half-maximal cytotoxic concentration (CC50) in the data set on MT-4 cells (setting [1]) was 627 µg/mL. Further, in the data set with HIV, the concentration giving a half-maximal response (EC50) amounted to 3.6 µg/mL and the “S.I. (CC50/EC50)” value was found to be 174.

Regarding “Sulfated dl-α-tocopheryl O-n-dodecanoyl-β-D-laminaripentaoside [Compound 38]”, the 50% cytotoxic concentration (CC50) with MT-4 cells (setting [2]) is 81.1 µg/mL. Besides, in the data set with HIV, the EC50 worked out at 18.7 µg/mL and the “S.I. (CC50/EC50)” value is 4.

“Sulfated dl-α-tocopheryl O-benzoyl-β-D-laminaripentaoside [Compound 44]”: the 50% cytotoxic concentration (CC50) in the data set on MT-4 cells (setting [2]) came to 685 µg/mL. Also, in the data set on HIV, the EC50 is 0.52 µg/mL and the “S.I. (CC50/EC50)” value was 1,317.

As for “Sulfated n-dodecyl O-2,4-difluorobenzoyl-β-D-laminaripentaoside [Compound 7]”, the half-maximal cytotoxic concentration (CC50) in the data set with MT-4 cells (setting [1]) is given as > 1,000 μg/ml. Also, in the data set on HIV, the EC50 came out at 2.1 µg/mL and the “S.I. (CC50/EC50)” value is reported as above 476.

As to “Sulfated n-dodecyl O-4-fluorobenzoyl-β-D-laminaripentaoside [Compound 5]”, in the data set on MT-4 cells (setting [2]), the CC50 is 986 µg/mL. In addition, in the data set with HIV, the EC50 was determined as 1.3 µg/mL and the “S.I. (CC50/EC50)” value is reported as 758.

On to “Sulfated 4-n-octyloxyphenyl O-4-fluorobenzoyl-β-D-laminaripentaoside [Compound 12]”, for which the CC50 with MT-4 cells (setting [1]) turned out to be 530 µg/mL. In the data set with HIV, the EC50 stood at 16.1 µg/mL and the “S.I. (CC50/EC50)” value is 33.

The substance “Sulfated dl-α-tocopheryl O-n-dodecanoyl-β-D-laminaripentaoside [Compound 39]” showed a 50% cytotoxic concentration (CC50) in the data set on MT-4 cells (setting [2]) of 586 µg/mL. For the same substance, in the data set on HIV, the EC50 was 15.3 µg/mL and the “S.I. (CC50/EC50)” value is 38.

Take “Sulfated dl-α-tocopheryl O-n-octanoyl-β-D-laminaripentaoside [Compound 33]”: in the data set on MT-4 cells (setting [2]), the CC50 is 639 µg/mL. In the data set with HIV, the EC50 stood at 0.64 µg/mL and the “S.I. (CC50/EC50)” value was 998.

“Sulfated 4-t-octylphenyl O-n-octanoyl-β-D-laminaripentaoside [Compound 27]”: in the data set on MT-4 cells (human, mt-4 cells, 120 h), the CC50 was > 1,000 μg/ml. For the same substance, in the data set on HIV, the concentration for a half-maximal effect (EC50) amounted to 0.63 µg/mL and the “S.I. (CC50/EC50)” value is recorded as > 1,587.

Substance “Sulfated n-dodecyl O-4-fluorobenzoyl-β-D-laminaripentaoside [Compound 3]” returned a CC50 in the data set with MT-4 cells (human, mt-4 cells, 120 h) of 964 µg/mL. In the data set on HIV, the EC50 was found to be 2.0 µg/mL and the “S.I. (CC50/EC50)” value is reported as 482.

“Sulfated dl-α-tocopheryl O-n-octanoyl-β-D-laminaripentaoside [Compound 34]” registered a half-maximal cytotoxic concentration (CC50) in the data set on MT-4 cells (setting [2]) of 472 µg/mL. In addition, in the data set with HIV, the half-maximal effective concentration (EC50) worked out at 16.0 µg/mL and the “S.I. (CC50/EC50)” value was found to be 30.

As to “Sulfated n-dodecyl O-benzoyl-β-D-laminaripentaoside [Compound 2]”, the CC50 in the data set on MT-4 cells (setting [2]) is given as > 1,000 μg/ml. Besides, in the data set with HIV, the EC50 is 0.4 µg/mL and the “S.I. (CC50/EC50)” value is listed as > 2,500.

Consider “Sulfated 4-t-octylphenyl O-benzoyl-β-D-laminaripentaoside [Compound 14]”, for which the CC50 in the data set on MT-4 cells (setting [1]) was determined as 557 µg/mL. Further, in the data set on HIV, the EC50 was found to be 16.4 µg/mL and the “S.I. (CC50/EC50)” value came out at 119.

With “Sulfated dl-α-tocopheryl O-n-dodecanoyl-β-D-laminaripentaoside [Compound 37]”, the CC50 in the data set on MT-4 cells (setting [2]) came to 77.4 µg/mL. Besides, in the data set with HIV, the concentration giving a half-maximal response (EC50) is 25.1 µg/mL and the “S.I. (CC50/EC50)” value is listed as 3.

For “Sulfated dl-α-tocopheryl O-2,4-difluorobenzoyl-β-D-galactosyl-(1→4)-β-D-galactosyl-(1→4)-β-D-glucoside [Compound 43]”, the CC50 in the data set with MT-4 cells (setting [1]) amounted to 644 µg/mL. For the same substance, in the data set with HIV, the EC50 was 3.3 µg/mL and the “S.I. (CC50/EC50)” value turned out to be 195.

In the data set with rabbit blood, Heparin [reference compound] registered a clotting time above 60 min.

As for “Sulfated 4-n-octyloxyphenyl O-benzoyl-β-D-laminaripentaoside [Compound 11]”, in the data set on MT-4 cells (setting [1]), the 50% cytotoxic concentration (CC50) turned out to be 557 µg/mL. In the data set on HIV, the 50% effective concentration (EC50) stood at 4.7 µg/mL and the “S.I. (CC50/EC50)” value was 119.

In the data set on MT-4 cells (setting [1]), “Sulfated 4-n-octylphenyl O-4-fluorobenzoyl-β-D-laminaripentaoside [Compound 9]” showed a CC50 of 496 µg/mL. Further, in the data set with HIV, the EC50 amounted to 14.1 µg/mL and the “S.I. (CC50/EC50)” value is reported as 35.

Turning to “Sulfated dl-α-tocopheryl O-n-butyryl-β-D-laminaripentaoside [Compound 30]”, the CC50 in the data set with MT-4 cells (setting [1]) came to 663 µg/mL. For the same substance, in the data set with HIV, the concentration for a half-maximal effect (EC50) turned out to be 0.59 µg/mL and the “S.I. (CC50/EC50)” value is recorded as 1,124.

“Sulfated dl-α-tocopheryl O-n-butyryl-β-D-laminaripentaoside [Compound 32]” had a CC50 with MT-4 cells (setting [2]) of 115 µg/mL. Moreover, in the data set with HIV, the EC50 came to 6.4 µg/mL and the “S.I. (CC50/EC50)” value worked out at 18.

Consider “Sulfated dl-α-tocopheryl O-n-butyryl-β-D-galactosyl-(1→4)-β-D-galactosyl-(1→4)-β-D-glucoside [Compound 41]”, for which, in the data set on MT-4 cells (setting [2]), the half-maximal cytotoxic concentration (CC50) was determined as 586 µg/mL. Moreover, in the data set on HIV, the concentration for a half-maximal effect (EC50) was found to be 5.4 µg/mL and the “S.I. (CC50/EC50)” value worked out at 109.

Turning to “Sulfated n-dodecyl O-4-fluorobenzoyl-β-D-laminaripentaoside [Compound 4]”, in the data set on MT-4 cells (setting [2]), the half-maximal cytotoxic concentration (CC50) was found to be 866 µg/mL. In the data set on HIV, the EC50 was 1.7 µg/mL and the “S.I. (CC50/EC50)” value was 509.

A word on the CC50: it is the concentration at which the toxic effect on the cells reaches its halfway point. High values mean lower toxicity to the cells, low ones greater toxicity to the cells. What is called EC50 is the midpoint of the concentration-response curve.
